This is an account of results in patent publication US8765773B2, “Substituted hydroxamic acids and uses thereof” (Millennium Pharmaceuticals, Inc., priority 2010, dated 2014).

The term inhibition denotes the change of the read-out against control, counted positive when it falls.

This experiment has as its target T1, purified human HDAC6 (Homo sapiens, UniProt Q9UBN7).
T1 construct: purchased BPS Bioscience 5006
T1 sequence (Q9UBN7 1-1215): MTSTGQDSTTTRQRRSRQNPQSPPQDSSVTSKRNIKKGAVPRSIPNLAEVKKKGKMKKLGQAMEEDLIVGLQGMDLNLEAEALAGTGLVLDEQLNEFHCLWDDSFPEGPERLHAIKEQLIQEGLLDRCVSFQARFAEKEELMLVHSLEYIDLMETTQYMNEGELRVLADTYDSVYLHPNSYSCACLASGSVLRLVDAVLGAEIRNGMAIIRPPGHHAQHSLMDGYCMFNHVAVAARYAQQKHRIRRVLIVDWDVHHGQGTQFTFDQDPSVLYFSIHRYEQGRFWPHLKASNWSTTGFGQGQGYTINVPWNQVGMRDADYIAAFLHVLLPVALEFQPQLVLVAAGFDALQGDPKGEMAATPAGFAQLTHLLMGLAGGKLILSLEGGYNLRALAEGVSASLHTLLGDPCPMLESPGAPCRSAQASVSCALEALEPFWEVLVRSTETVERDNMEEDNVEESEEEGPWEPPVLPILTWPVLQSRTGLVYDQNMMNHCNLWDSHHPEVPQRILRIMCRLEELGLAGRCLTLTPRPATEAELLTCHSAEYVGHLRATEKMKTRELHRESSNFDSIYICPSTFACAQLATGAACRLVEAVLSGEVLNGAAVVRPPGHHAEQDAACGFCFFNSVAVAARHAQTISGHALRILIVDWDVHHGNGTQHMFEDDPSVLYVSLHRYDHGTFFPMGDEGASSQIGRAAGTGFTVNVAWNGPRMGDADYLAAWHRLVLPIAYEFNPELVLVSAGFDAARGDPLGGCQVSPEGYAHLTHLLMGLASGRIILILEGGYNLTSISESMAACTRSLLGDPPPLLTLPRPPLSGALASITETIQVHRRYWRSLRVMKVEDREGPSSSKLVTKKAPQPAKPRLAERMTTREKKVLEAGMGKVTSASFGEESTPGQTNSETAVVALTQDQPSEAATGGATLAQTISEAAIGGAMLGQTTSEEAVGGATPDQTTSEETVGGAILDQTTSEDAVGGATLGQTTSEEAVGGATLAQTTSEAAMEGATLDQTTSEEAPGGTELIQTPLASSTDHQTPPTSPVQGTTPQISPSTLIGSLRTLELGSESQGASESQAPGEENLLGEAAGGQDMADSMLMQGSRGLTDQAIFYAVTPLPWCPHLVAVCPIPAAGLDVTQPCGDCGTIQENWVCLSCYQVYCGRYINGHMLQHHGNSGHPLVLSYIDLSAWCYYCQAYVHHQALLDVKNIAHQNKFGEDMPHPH
The experiment can be described thus: HDAC6 Enzyme Assay. It is filed as biochemical. The conditions noted are these: compound concentration 0.37 μM, read-out: Percent Inhibition. The gist of the method:
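Readout is AMC fluorescence (Ex 340 nm, Em 460 nm) after trypsin cleavage of the deacetylated Ac-Arg-Gly-Lys(Ac)-AMC product. Reaction: purified human HDAC6, compound or vehicle, 1 hour, 30° C, quenched by trichostatin A. Single-concentration percent inhibition or IC50 calculated versus DMSO-treated samples.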
For the molecule `O=C(NO)c1ccc2ncn(CCc3cccc(-c4cc5ccccc5s4)c3)c(=O)c2c1` [Compound I-302, 3-{2-[3-(1-benzothien-2-yl)phenyl]ethyl}-N-hydroxy-4-oxo-3,4-dihydroquinazoline-6-carboxamide], the inhibition at 0.37 µM was 83.5%.

Regarding `COc1ccc(-c2cccc(CCn3cnc4ccc(C(=O)NO)cc4c3=O)c2)cc1` [Compound I-303, N-hydroxy-3-[2-(4′-methoxybiphenyl-3-yl)ethyl]-4-oxo-3,4-dihydroquinazoline-6-carboxamide], the inhibition at 0.37 µM is 93.3%.

As for `Cc1cccc(-c2cccc(CCn3cnc4ccc(C(=O)NO)cc4c3=O)c2)c1` [Compound I-304, N-hydroxy-3-[2-(3′-methylbiphenyl-3-yl)ethyl]-4-oxo-3,4-dihydroquinazoline-6-carboxamide], the inhibition at 0.37 µM was 90.9%.

For the molecule `O=C(NO)c1ccc2ccn(Cc3ccc(-n4cccc4)cc3)c(=O)c2c1` [Compound I-305, N-hydroxy-1-oxo-2-[4-(1H-pyrrol-1-yl)benzyl]-1,2-dihydroisoquinoline-7-carboxamide], the inhibition at 0.37 µM worked out at 99%.

In the case of `O=C(NO)c1ccc2ccn(Cc3cccc(-n4cc5ccccc5n4)c3)c(=O)c2c1` [Compound I-308, N-hydroxy-2-[3-(2H-indazol-2-yl)benzyl]-1-oxo-1,2-dihydroisoquinoline-7-carboxamide], the inhibition at 0.37 µM stood at 97.9%.

For `CN(C)S(=O)(=O)c1cccc(-c2cccc(CCn3cnc4ccc(C(=O)NO)cc4c3=O)c2)c1` [Compound I-309, 3-(2-{3′-[(dimethylamino)sulfonyl]biphenyl-3-yl}ethyl)-N-hydroxy-4-oxo-3,4-dihydroquinazoline-6-carboxamide], the inhibition at 0.37 µM was 83.8%.

Take `O=C(NO)c1ccc2ccn(-c3ccccn3)c(=O)c2c1` [Compound I-310, N-hydroxy-1-oxo-2-pyridin-2-yl-1,2-dihydroisoquinoline-7-carboxamide]: the inhibition at 0.37 µM amounted to 90.3%.

With `O=C(NO)c1ccc2ncn(CCc3cccc(-c4cccc(C(F)(F)F)c4)c3)c(=O)c2c1` [Compound I-311, N-hydroxy-4-oxo-3-{2-[3′-(trifluoromethyl)biphenyl-3-yl]ethyl}-3,4-dihydroquinazoline-6-carboxamide], the inhibition at 0.37 µM turned out to be 91.6%.

For `O=C(NO)c1ccc2ncn(CCc3cccc(-c4cccc(OC(F)(F)F)c4)c3)c(=O)c2c1` [Compound I-312, N-hydroxy-4-oxo-3-{2-[3′-(trifluoromethoxy)biphenyl-3-yl]ethyl}-3,4-dihydroquinazoline-6-carboxamide], the inhibition at 0.37 µM was 76.2%.

As for `O=C(NO)c1ccc2ncn(CCc3cccc(-c4c(Cl)cccc4Cl)c3)c(=O)c2c1` [Compound I-313, 3-[2-(2′,6′-dichlorobiphenyl-3-yl)ethyl]-N-hydroxy-4-oxo-3,4-dihydroquinazoline-6-carboxamide], the inhibition at 0.37 µM was found to be 73.2%.

Take `O=C(NO)c1ccc2ncn(CCc3cccc(-c4ccccc4Cl)c3)c(=O)c2c1` [Compound I-314, 3-[2-(2′-chlorobiphenyl-3-yl)ethyl]-N-hydroxy-4-oxo-3,4-dihydroquinazoline-6-carboxamide]: the inhibition at 0.37 µM was 93.5%.

Take `CCN1CCC(CCn2ccc3ccc(C(=O)NO)cc3c2=O)CC1` [Compound I-315, 2-[2-(1-ethylpiperidin-4-yl)ethyl]-N-hydroxy-1-oxo-1,2-dihydroisoquinoline-7-carboxamide]: the inhibition at 0.37 µM came out at 90.1%.

For the molecule `O=C(NO)c1ccc2ncn(CCc3cccc(-c4cccc(Cl)c4)c3)c(=O)c2c1` [Compound I-316, 3-[2-(3′-chlorobiphenyl-3-yl)ethyl]-N-hydroxy-4-oxo-3,4-dihydroquinazoline-6-carboxamide], the inhibition at 0.37 µM is 87.7%.

With `CC(C)(C)OC(=O)N1CCC(c2cccc(CCn3ccc4ccc(C(=O)NO)cc4c3=O)c2)CC1` [Compound I-317, tert-butyl 4-(3-{2-[7-[(hydroxyamino)carbonyl]-1-oxoisoquinolin-2(1H)-yl]ethyl}phenyl)piperidine-1-carboxylate], the inhibition at 0.37 µM stood at 93.2%.

As for `O=C(NO)c1ccc2ncn(CCc3cccc(-c4csc5ccccc45)c3)c(=O)c2c1` [Compound I-318, 3-{2-[3-(1-benzothien-3-yl)phenyl]ethyl}-N-hydroxy-4-oxo-3,4-dihydroquinazoline-6-carboxamide], the inhibition at 0.37 µM was 86.4%.

In the case of `Cn1cc(-c2cccc(Cn3ccc4ccc(C(=O)NO)cc4c3=O)c2)cn1` [Compound I-319, N-hydroxy-2-[3-(1-methyl-1H-pyrazol-4-yl)benzyl]-1-oxo-1,2-dihydroisoquinoline-7-carboxamide], the inhibition at 0.37 µM amounted to 98.6%.

In the case of `COc1ncccc1-c1cccc(CCn2cnc3ccc(C(=O)NO)cc3c2=O)c1` [Compound I-320, N-hydroxy-3-{2-[3-(2-methoxypyridin-3-yl)phenyl]ethyl}-4-oxo-3,4-dihydroquinazoline-6-carboxamide], the inhibition at 0.37 µM is 90.4%.

Take `O=C(O)c1ccc(-c2cccc(CCn3cnc4ccc(C(=O)NO)cc4c3=O)c2)cc1` [Compound I-321, 3′-{2-[6-[(hydroxyamino)carbonyl]-4-oxoquinazolin-3(4H)-yl]ethyl}biphenyl-4-carboxylic acid]: the inhibition at 0.37 µM came out at 87.3%.

Turning to `Nc1cccc(-c2cccc(CCn3cnc4ccc(C(=O)NO)cc4c3=O)c2)c1` [Compound I-322, 3-[2-(3′-aminobiphenyl-3-yl)ethyl]-N-hydroxy-4-oxo-3,4-dihydroquinazoline-6-carboxamide], the inhibition at 0.37 µM was determined as 76.1%.

As to `O=C(NO)c1ccc2ncn(CCc3cccc(-c4ccn[nH]4)c3)c(=O)c2c1` [Compound I-323, N-hydroxy-4-oxo-3-{2-[3-(1H-pyrazol-5-yl)phenyl]ethyl}-3,4-dihydroquinazoline-6-carboxamide], the inhibition at 0.37 µM was 94.6%.

For the molecule `O=C(NO)c1ccc2ccn(CCc3cccc(C4CCNCC4)c3)c(=O)c2c1` [Compound I-324, N-hydroxy-1-oxo-2-[2-(3-piperidin-4-ylphenyl)ethyl]-1,2-dihydroisoquinoline-7-carboxamide], the inhibition at 0.37 µM was 91.2%.

As to `O=C(NO)c1ccc2ncn(CCc3cccc(-c4ccccc4C(F)(F)F)c3)c(=O)c2c1` [Compound I-325, N-hydroxy-4-oxo-3-{2-[2′-(trifluoromethyl)biphenyl-3-yl]ethyl}-3,4-dihydroquinazoline-6-carboxamide], the inhibition at 0.37 µM worked out at 42.1%.

For `CC(C)(C)C(=O)Nc1ncccc1-c1cccc(CCn2cnc3ccc(C(=O)NO)cc3c2=O)c1` [Compound I-327, 3-[2-(3-{2-[(2,2-dimethylpropanoyl)amino]pyridin-3-yl}phenyl)ethyl]-N-hydroxy-4-oxo-3,4-dihydroquinazoline-6-carboxamide], the inhibition at 0.37 µM was 92%.

In the case of `O=C(NO)c1ccc2ccn(-c3cccc(-c4ccncc4)c3)c(=O)c2c1` [Compound I-328, N-hydroxy-1-oxo-2-(3-pyridin-4-ylphenyl)-1,2-dihydroisoquinoline-7-carboxamide], the inhibition at 0.37 µM is 96.7%.

Consider `COc1ccc(-c2cccc(CCn3cnc4ccc(C(=O)NO)cc4c3=O)c2)cn1` [Compound I-329, N-hydroxy-3-{2-[3-(6-methoxypyridin-3-yl)phenyl]ethyl}-4-oxo-3,4-dihydroquinazoline-6-carboxamide], for which the inhibition at 0.37 µM turned out to be 92.6%.

In the case of `O=C(NO)c1ccc2ncn(CCc3cccc(-c4cccnc4)c3)c(=O)c2c1` [Compound I-331, N-hydroxy-4-oxo-3-[2-(3-pyridin-3-ylphenyl)ethyl]-3,4-dihydroquinazoline-6-carboxamide], the inhibition at 0.37 µM is 87.2%.

Take `O=C(NO)c1ccc2ncn(CCNCc3cccc(-n4cccn4)c3)c(=O)c2c1` [Compound I-332, N-hydroxy-4-oxo-3-(2-{[3-(1H-pyrazol-1-yl)benzyl]amino}ethyl)-3,4-dihydroquinazoline-6-carboxamide]: the inhibition at 0.37 µM is 90.4%.

For the molecule `CC(=O)Nc1ccc(-c2cccc(CCn3cnc4ccc(C(=O)NO)cc4c3=O)c2)cc1` [Compound I-334, 3-{2-[4′-(acetylamino)biphenyl-3-yl]ethyl}-N-hydroxy-4-oxo-3,4-dihydroquinazoline-6-carboxamide], the inhibition at 0.37 µM turned out to be 93.8%.
